This note sets out measurements from patent publication US9890185B2, “Urea derivatives useful as kinase inhibitors” (Respivert Limited, priority 2013, dated 2018).

Assay [1] concerns PBMCs. Description: Cell mitosis assay in PBMCs (assay g). It counts as cell-based. As to conditions: Homo sapiens, PBMC, test compound 5 μg/mL. The procedure, abridged: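 Metaphase arrest with 0.1 μg/mL demecolcine during the final 2 hr of a 20 hr compound exposure, which follows 48 hr of 2% PHA stimulation of healthy-donor human PBMCs. Mitotic lymphocytes counted by flow cytometry (anti-phospho-histone 3 plus propidium iodide). Inhibition expressed relative to 0.5% DMSO.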

The target in a further assay is Syk (Homo sapiens (Human), UniProt P43405). Nature of the assay: Syk enzyme inhibition (FRET, Z-LYTE). In kind it is biochemical. The procedure, abridged:
(§1)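 Each kinase is exposed to test compound for 2 hr at RT before substrate and ATP (pre-mix levels: c-Src 800 μM, Syk 60 μM) start a 1 hr reaction. A 1 hr protease step removes signal from non-phosphorylated peptide; inhibition against uninhibited control yields IC50.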

Assay [2] concerns PBMCs. Nature of the assay: IL-2 release in CD3/CD28 stimulated PBMC cells (assay c). In kind it is cell-based. The settings on record: Homo sapiens, read-out: IC50 Values for Inhibition of Cytokine Release, PBMCs IL-2. The procedure, abridged: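 Compound added to human PBMCs on anti-CD3/anti-CD28-coated wells (0.3 and 3 μg/mL respectively); 3-day culture. Sandwich ELISA of supernatant IL-2 or IFN gamma gives the read-out, with IC50 derived from the dose-response curve.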

The target in another assay is c-Src (Homo sapiens (Human), UniProt P12931). Description: c-Src enzyme inhibition (FRET, Z-LYTE). It counts as biochemical. A digest of the protocol: as §1
c-Src, sequence (P12931 whole entry, looked up): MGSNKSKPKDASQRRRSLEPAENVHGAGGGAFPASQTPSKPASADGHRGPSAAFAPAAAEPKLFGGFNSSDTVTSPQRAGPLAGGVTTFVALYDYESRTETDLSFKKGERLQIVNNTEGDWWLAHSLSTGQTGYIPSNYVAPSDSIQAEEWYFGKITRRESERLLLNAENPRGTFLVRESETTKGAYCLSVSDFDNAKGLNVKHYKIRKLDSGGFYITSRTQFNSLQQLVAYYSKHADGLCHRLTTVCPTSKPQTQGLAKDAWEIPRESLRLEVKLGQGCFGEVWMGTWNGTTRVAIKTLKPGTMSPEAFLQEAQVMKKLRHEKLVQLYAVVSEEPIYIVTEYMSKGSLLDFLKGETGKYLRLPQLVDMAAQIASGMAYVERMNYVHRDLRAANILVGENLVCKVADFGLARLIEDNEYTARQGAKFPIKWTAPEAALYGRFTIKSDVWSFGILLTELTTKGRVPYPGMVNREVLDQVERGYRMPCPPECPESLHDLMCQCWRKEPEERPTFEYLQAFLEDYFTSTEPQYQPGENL
The next assay addresses GSK 3α (Homo sapiens (Human), UniProt P49840). Nature of the assay: GSK 3α enzyme inhibition (FRET, Z-LYTE, Method 2). It counts as biochemical. As to conditions: read-out: IC50 Values for Enzyme Inhibition, GSK3α. A digest of the protocol: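 Recombinant human GSK3α was preincubated with compound (stocks 4, 0.4, 0.04 or 0.004 μg/mL) at RT, 2 hr for Method 1 and 105 min for Method 2. FRET peptide (8 μM stock) and ATP (40 μM stock) were added for 1 hr, then protease development for 1 hr. IC50 was taken from concentration–response curves.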

The subject of a further assay is d-U937 cells. Description: Accumulation of β catenin in d-U937 cells (assay m). The settings on record: percentage relative to Reference Compound at 1 μg/mL. In kind it is cell-based, human. The procedure, abridged:
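Read-out: colourimetric cell-based immunoassay for endogenous β-catenin (OD450 minus 655 reference), normalised to crystal violet absorbance at 595 nm. Test compound or vehicle was applied for 18 hr to U937 monocytes first differentiated with PMA (100 ng/mL) for 48–72 hr.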

GSK 3α, sequence (P49840 whole entry): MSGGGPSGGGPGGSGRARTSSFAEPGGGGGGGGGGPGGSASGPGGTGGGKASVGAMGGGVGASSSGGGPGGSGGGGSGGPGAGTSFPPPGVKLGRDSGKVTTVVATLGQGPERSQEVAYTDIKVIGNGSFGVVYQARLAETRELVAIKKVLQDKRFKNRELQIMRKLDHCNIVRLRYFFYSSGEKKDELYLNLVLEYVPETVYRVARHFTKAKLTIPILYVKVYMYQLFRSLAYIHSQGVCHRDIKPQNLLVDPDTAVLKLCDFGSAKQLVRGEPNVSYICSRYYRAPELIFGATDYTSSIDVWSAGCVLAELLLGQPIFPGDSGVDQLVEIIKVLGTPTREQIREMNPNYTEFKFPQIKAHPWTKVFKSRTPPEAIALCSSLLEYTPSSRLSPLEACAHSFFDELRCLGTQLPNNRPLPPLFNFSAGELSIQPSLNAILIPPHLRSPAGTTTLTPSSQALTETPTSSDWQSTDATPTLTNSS

The term inhibition denotes how much of the control response was suppressed. Usually IC50 stands for the concentration that inhibits the measured activity by half. Consider `COc1c(NC(=O)Nc2ccc(Oc3ccnc(Nc4ccccc4)c3)c3ccccc23)cc(C(C)(C)C)cc1C(=O)NCCN1CCOCC1` [Example 14, 5-(tert-Butyl)-2-methoxy-N-(2-morpholinoethyl)-3-(3-(4-((2-(phenylamino)pyridin-4-yl)oxy)naphthalen-1-yl)ureido)benzamide], for which 5 µg/mL produced 51.9% inhibition with PBMCs [1]. Further, the IC50 is 364 nM against Syk, 39.2 nM in the assay on PBMCs [2], 135 nM against c-Src and > 10100 nM on GSK 3α. The “% β-catenin induction” value in the assay on d-U937 cells (test compound 1 μg/mL) is listed as −0.5%; in the assay with d-U937 cells (test compound 5 μg/mL), 22.0%; in the assay with d-U937 cells (test compound 10 μg/mL), 25.5%.
Turning to `COc1c(NC(=O)Nc2ccc(Oc3ccnc(Nc4ccccc4)c3)c3ccccc23)cc(C(C)(C)C)cc1[S+](C)[O-]` (racemic) [Example 12, 1-(5-(tert-Butyl)-2-methoxy-3-(methylsulfinyl)phenyl)-3-(4-((2-(phenylamino)pyridin-4-yl)oxy)naphthalen-1-yl)urea], testing at 5 µg/mL with PBMCs [1] gave an inhibition of 23.2%. In addition, the 50% inhibitory concentration (IC50) is 656 nM at Syk, 67 nM in the assay on PBMCs [2], 201 nM against c-Src and > 9900 nM at GSK 3α. The “% β-catenin induction” value in the assay on d-U937 cells (test compound 1 μg/mL) is given as −0.5%; in the assay with d-U937 cells (test compound 5 μg/mL), 5.0%; in the assay on d-U937 cells (test compound 10 μg/mL), 6.0%.
Compound `COCCOCCOCCOc1cc(Nc2cc(Oc3ccc(NC(=O)Nc4cc(C(C)(C)C)cc([S+](C)[O-])c4OC)c4ccccc34)ccn2)cc(OC)c1` (stereo not shown) [Example 17, 1-(5-(tert-Butyl)-2-methoxy-3-(methylsulfinyl)phenyl)-3-(4-((2-((3-methoxy-5-(2-(2-(2-methoxyethoxy)ethoxy)ethoxy)phenyl)amino)pyridin-4-yl)oxy)naphthalen-1-yl)urea] had an inhibition at 5 µg/mL in the assay on PBMCs [1] of 41.3%. For the same compound, the concentration for half-maximal inhibition (IC50) against Syk came out at 134 nM; with PBMCs [2], 30.5 nM; against c-Src it was 30 nM; at GSK 3α, 10300 nM. The “% β-catenin induction” value in the assay on d-U937 cells (test compound 1 μg/mL) was −2.0%; with d-U937 cells (test compound 5 μg/mL) it was −7.0%; with d-U937 cells (test compound 10 μg/mL), −5.5%.
`COc1cc(CO)cc(Nc2cc(Oc3ccc(NC(=O)Nc4cc(C(C)(C)C)cc(CC(N)=O)c4OC)c4ccccc34)ccn2)c1` [38(m), 2-(5-(tert-Butyl)-3-(3-(4-((2-((3-(hydroxymethyl)-5-methoxyphenyl)amino)pyridin-4-yl)oxy)naphthalen-1-yl)ureido)-2-methoxyphenyl)acetamide] gave an inhibition at 5 µg/mL with PBMCs [1] of 77.4%. Besides, the half-maximal inhibitory concentration (IC50) was determined as 364 nM on Syk, 93.8 nM in the assay on PBMCs [2], 33 nM against c-Src and 3380 nM on GSK 3α. Further, the “% β-catenin induction” value in the assay with d-U937 cells (test compound 1 μg/mL) is listed as 3.0%; in the assay with d-U937 cells (test compound 5 μg/mL), 23.0%; in the assay with d-U937 cells (test compound 10 μg/mL) it was 37.0%.
On to `COCCOCCOCCOc1cc(Nc2cc(Oc3ccc(NC(=O)Nc4cc(C(C)(C)C)cc(C(=O)NCCN5CCOCC5)c4OC)c4ccccc34)ccn2)cc(OC)c1` [Example 16, 5-(tert-Butyl)-2-methoxy-3-(3-(4-((2-((3-methoxy-5-(2-(2-(2-methoxyethoxy)ethoxy)ethoxy)-phenyl)amino)pyridin-4-yl)oxy)naphthalen-1-yl)ureido)-N-(2-morpholinoethyl)benzamide], for which the inhibition at 5 µg/mL in the assay with PBMCs [1] was determined as 43.3%. Also, the 50% inhibitory concentration (IC50) against Syk came out at 93 nM; with PBMCs [2], 7.7 nM; at c-Src it was 40 nM; at GSK 3α, 5670 nM. Further, the results for the “% β-catenin induction” value in the assay with d-U937 cells (test compound 1 μg/mL), with d-U937 cells (test compound 5 μg/mL) and in the assay with d-U937 cells (test compound 10 μg/mL) were 0.0%, −3.0% and −6.5%, respectively.
Turning to `COc1c(NC(=O)Nc2ccc(Oc3ccnc(Nc4cnn(C)n4)n3)c3ccccc23)cc(C(C)(C)C)cc1P(C)(C)=O` [15(x), 1-(5-(tert-butyl)-3-(dimethylphosphoryl)-2-methoxyphenyl)-3-(4-((2-((2-methyl-2H-1,2,3-triazol-4-yl)amino)pyrimidin-4-yl)oxy)naphthalen-1-yl)urea], at 5 µg/mL the inhibition with PBMCs [1] was 18.4%. The IC50 against Syk is > 1630 nM; with PBMCs [2] it was 624 nM; against c-Src, 356 nM; on GSK 3α, 4660 nM. Also, the “% β-catenin induction” value was determined as 7.0% in the assay on d-U937 cells (test compound 1 μg/mL), 4.0% in the assay on d-U937 cells (test compound 5 μg/mL) and 4.0% with d-U937 cells (test compound 10 μg/mL).
Compound `COc1cc(Nc2cc(Oc3ccc(NC(=O)Nc4cc(C(C)(C)C)cc([S+](C)[O-])c4OC)c4ccccc34)ccn2)ccc1C(=O)NCCN1CCOCC1` (stereo not shown) [Example 72, 4-((4-((4-(3-(5-(tert-Butyl)-2-methoxy-3-(methylsulfinyl)phenyl)ureido)naphthalen-1-yl)oxy)pyridin-2-yl)amino)-2-methoxy-N-(2-morpholinoethyl)benzamide] yielded an inhibition at 5 µg/mL with PBMCs [1] of 36.8%. Further, the IC50 at Syk was determined as 98 nM; with PBMCs [2] it was 156 nM; at c-Src, 20 nM; on GSK 3α it was 3660 nM.
Taken in the same sequence, the figures for `COc1cc(Nc2cc(Oc3ccc(NC(=O)Nc4cc(C(C)(C)C)cc(CC(N)=O)c4OC)c4ccccc34)ccn2)ccc1C(=O)NCC(CO)(CO)CO` [Example 73, 4-((4-((4-(3-(3-(2-Amino-2-oxoethyl)-5-(tert-butyl)-2-methoxyphenyl)ureido)naphthalen-1-yl)oxy)pyridin-2-yl)amino)-N-(3-hydroxy-2,2-bis(hydroxymethyl)propyl)-2-methoxybenzamide] were 19.8%, 120 nM, 60.1 nM, 29 nM and 1980 nM.
In the case of `COCCOCCOCCOc1cc(Nc2nccc(Oc3ccc(NC(=O)Nc4cc(C(C)(C)C)cc(OCP(C)(C)=O)c4OC)c4ccccc34)n2)cc(OC)c1` [Example 6, 1-(5-(tert-Butyl)-3-((dimethylphosphoryl)methoxy)-2-methoxyphenyl)-3-(4-((2-((3-methoxy-5-(2-(2-(2-methoxyethoxy)ethoxy)ethoxy)phenyl)amino)pyrimidin-4-yl)oxy)naphthalen-1-yl)urea], in the assay on PBMCs [1], the inhibition at 5 µg/mL came to 52.4%. Also, the 50% inhibitory concentration (IC50) on Syk was found to be 58 nM; against c-Src, 16 nM; on GSK 3α, 1200 nM. Also, the “% β-catenin induction” value with d-U937 cells (test compound 1 μg/mL) was found to be 1.0%; with d-U937 cells (test compound 5 μg/mL) it was 29.0%; with d-U937 cells (test compound 10 μg/mL), 65.0%.
In the assay on PBMCs [1], `COCCOCCOCCNC(=O)c1cc(Nc2cc(Oc3ccc(NC(=O)Nc4cc(C(C)(C)C)cc(CNC(=O)CN(C)C)c4OC)c4ccccc34)ccn2)cc(OC)c1` [Example 77, 3-((4-((4-(3-(5-(tert-Butyl)-3-((2-(dimethylamino)acetamido)methyl)-2-methoxyphenyl)ureido)naphthalen-1-yl)oxy)pyridin-2-yl)amino)-5-methoxy-N-(2-(2-(2-methoxyethoxy)ethoxy)ethyl)benzamide] registered an inhibition at 5 µg/mL of 58.7%. Also, the IC50 was determined as 51 nM on Syk, 18.9 nM with PBMCs [2], 17 nM against c-Src and 2620 nM at GSK 3α.
